# From patent US11358947B2, “Substituted 2-acylamino-cycloalkylthiophene-3-carboxylic acid arylamides as inhibitors of calcium-activated chloride channel TMEM16A” (THE REGENTS OF THE UNIVERSITY OF CALIFORNIA, priority 2017, dated 2022)
# Values joined by “and” are separate entries in the source; they are usually repeats but may differ in a detail not shown here. Identical values can stand only once.
# Assays:
# TMEM16A [1] = target: T1, TMEM16A (Homo sapiens, UniProt Q5XXA6); assay: TMEM16A functional fluorescence plate reader (FPR) assay, iodide influx in FRT cells with YFP; format: cell-based; details: TMEM16A-expressing FRT cells, compound 10 min before iodide/ATP
# T1 sequence (Q5XXA6 1-986): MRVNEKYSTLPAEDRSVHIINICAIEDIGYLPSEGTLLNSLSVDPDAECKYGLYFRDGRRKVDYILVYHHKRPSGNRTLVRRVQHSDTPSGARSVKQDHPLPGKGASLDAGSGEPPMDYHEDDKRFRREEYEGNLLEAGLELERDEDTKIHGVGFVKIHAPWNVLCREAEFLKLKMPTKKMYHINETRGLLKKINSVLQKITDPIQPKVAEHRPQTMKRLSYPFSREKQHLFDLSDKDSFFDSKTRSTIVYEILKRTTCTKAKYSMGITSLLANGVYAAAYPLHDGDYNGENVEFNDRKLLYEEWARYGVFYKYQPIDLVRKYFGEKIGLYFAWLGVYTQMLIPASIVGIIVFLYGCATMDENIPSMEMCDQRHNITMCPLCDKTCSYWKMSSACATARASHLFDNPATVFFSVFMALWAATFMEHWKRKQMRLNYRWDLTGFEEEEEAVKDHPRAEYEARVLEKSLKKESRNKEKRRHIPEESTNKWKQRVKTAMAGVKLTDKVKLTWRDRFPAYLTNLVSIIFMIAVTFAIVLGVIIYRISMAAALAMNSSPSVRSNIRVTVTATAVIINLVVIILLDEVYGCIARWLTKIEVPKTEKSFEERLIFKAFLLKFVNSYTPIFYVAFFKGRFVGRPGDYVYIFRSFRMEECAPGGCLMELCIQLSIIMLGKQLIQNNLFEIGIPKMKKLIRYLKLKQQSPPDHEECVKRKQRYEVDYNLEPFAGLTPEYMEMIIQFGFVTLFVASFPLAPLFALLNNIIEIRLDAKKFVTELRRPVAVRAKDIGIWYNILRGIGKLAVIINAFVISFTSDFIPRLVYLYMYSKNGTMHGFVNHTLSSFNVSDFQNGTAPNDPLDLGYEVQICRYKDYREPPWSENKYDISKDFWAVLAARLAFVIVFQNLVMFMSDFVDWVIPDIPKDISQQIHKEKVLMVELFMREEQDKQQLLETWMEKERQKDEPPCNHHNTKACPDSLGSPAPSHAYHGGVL
# Description: A high-throughput screening assay was previously developed to identify small molecule inhibitors of TMEM16A. […] The assay involved addition of test compounds to the cells for 10 min in a physiological chloride-containing solution, followed by addition of an iodide solution containing ATP. TMEM16A-facilitated iodide influx was determined from the initial time course of decreasing YFP fluorescence.
# 2-Acylamino-cycloalkylthiophene-3-carboxylic acid arylamides 6aa-6bw were initially evaluated for inhibition of TMEM16A anion channel function using a cell-based functional plate reader assay as reported.
# Yields (%) are of the isolated or purified products. IC50 (μM) for inhibition of TMEM16A anion conductance using a fluorescence plate reader (FPR) assay.
# Cell lines and culture. Fischer Rat Thyroid (FRT) cells stably co-expressing TMEM16A, TMEM16B and human wild-type CFTR and the halide-sensitive yellow fluorescent protein (YFP)-H148Q were cultured as described. […] For plate reader assays, cells were plated in black 96-well microplates (Corning-Costar Corp., New York, N.Y.) at a density of 20,000 cells per well and assayed 24-48 hours after plating.
# (§1) TMEM16A functional assay. TMEM16A functional plate-reader assay was done as previously described. […] Test compounds (0.5 μl in DMSO) were added to each well at specified concentration. […] The initial rate of I− influx following each of the solution additions was computed from fluorescence data by nonlinear regression. TMEM16B activity was assayed similarly as described using FRT cells co-expressing YFP and TMEM16B.
# TMEM16A [2] = target: T1, TMEM16A; assay: Short-circuit current assay in TMEM16A-expressing FRT cells; format: cell-based
# From the text: Measurements were done in FRT cells expressing TMEM16A.
# (§2) Concentration-dependent inhibition of TMEM16A measured by short-circuit current assay; TMEM16B and non-TMEM16 anion conductance measured using a fluorescence plate reader assay using FRT and HT-29 cells respectively; cell viability measured in FRT null cells.
# Short-circuit current measurement. Short-circuit current measurements were done as described. (See Piechowicz, K. A. et al., J Enzyme Inhib Med Chem 2016, 1-7.) Briefly, Snapwell inserts (Corning Costar, Corning, N.Y.) containing TMEM16A-expressing FRT cells were mounted in Ussing chambers (Physiological instruments, San Diego, Calif.). The hemichambers were filled with 5 ml of HCO3^− buffered solution (basolateral) and half-Cl^− solution (apical), and the basolateral membrane was permeabilized with 250 μg/ml amphotericin B. Solutions were bubbled with 95% O2/5% CO2 and maintained at 37° C., and short-circuit current was measured on a DVC-1000 voltage clamp (World Precision Instruments Inc., Sarasota, Fla.) using Ag/AgCl electrodes and 3 M KCl agar bridges.
# TMEM16B = target: T2, TMEM16B (Homo sapiens, UniProt Q9NQ90); assay: TMEM16B fluorescence plate reader assay in FRT cells; format: cell-based
# T2 construct: expressed in transfected cells; host or cells: Fischer Rat Thyroid (FRT) cells co-expressing YFP
# T2 sequence (Q9NQ90 1-998): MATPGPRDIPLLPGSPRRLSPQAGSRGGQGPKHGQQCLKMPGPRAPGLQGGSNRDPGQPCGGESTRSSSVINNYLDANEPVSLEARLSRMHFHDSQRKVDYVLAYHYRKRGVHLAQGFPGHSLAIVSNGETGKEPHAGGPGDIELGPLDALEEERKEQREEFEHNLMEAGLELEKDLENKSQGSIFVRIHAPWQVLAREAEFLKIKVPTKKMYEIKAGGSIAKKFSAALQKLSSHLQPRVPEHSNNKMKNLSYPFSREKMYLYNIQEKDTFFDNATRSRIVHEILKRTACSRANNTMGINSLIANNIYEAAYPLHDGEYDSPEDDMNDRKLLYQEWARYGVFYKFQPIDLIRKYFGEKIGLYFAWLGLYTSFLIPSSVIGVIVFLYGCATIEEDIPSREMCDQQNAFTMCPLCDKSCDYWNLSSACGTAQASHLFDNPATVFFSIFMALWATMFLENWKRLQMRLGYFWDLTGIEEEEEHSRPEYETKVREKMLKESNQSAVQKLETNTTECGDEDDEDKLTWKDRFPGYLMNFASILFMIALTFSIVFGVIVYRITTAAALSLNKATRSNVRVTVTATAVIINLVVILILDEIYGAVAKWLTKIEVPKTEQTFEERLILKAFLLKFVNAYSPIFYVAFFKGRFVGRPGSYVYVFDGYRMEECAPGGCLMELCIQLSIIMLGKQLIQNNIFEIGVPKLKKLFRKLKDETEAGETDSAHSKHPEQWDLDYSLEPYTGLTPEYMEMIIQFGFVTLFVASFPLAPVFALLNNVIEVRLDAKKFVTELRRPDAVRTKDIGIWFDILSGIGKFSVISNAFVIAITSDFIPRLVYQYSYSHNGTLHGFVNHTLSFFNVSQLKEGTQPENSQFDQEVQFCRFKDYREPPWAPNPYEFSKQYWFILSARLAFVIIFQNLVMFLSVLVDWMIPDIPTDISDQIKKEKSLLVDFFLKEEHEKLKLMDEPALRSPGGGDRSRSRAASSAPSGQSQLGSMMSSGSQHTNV
# Description: as §2
# (§3) We further assayed the compound potency on endogenous non-TMEM16A. Ca^2+-activated Cl^− channel in HT-29 cells.
# as §1
# FRT null cells = assay: Cytotoxicity by Alamar Blue assay in FRT cells; format: cell-based, rat; details: 8 h
# Description: as §2, §3
# Cytotoxicity. FRT cells were cultured overnight in black 96-well Costar microplates and incubated with 5 μM test compounds for 8 h. Cytotoxicity was measured by Alamar Blue assay (Invitrogen, Carlsbad, Calif.) as per the manufacturer's instructions.
# [3] = In vitro metabolic stability with rat liver microsomes and NADPH; format: in vitro ADME; details: rat liver microsomes + NADPH, 180 min
# Description: (3B) LC/MS traces showing total ion counts as a function of incubation time.
# These compounds were incubated with rat liver microsomes and NADPH, and non-metabolized compounds were quantified by ESI-LCMS. […] It is speculated that Ani-9 could be oxidized at the aryl methyl or N—N bond; or hydrolyzed at the amide or hydrazone linkages.
# Compounds (each 10 uM) were incubated for specific time points (2, 5, 15, 30, 60, 180 min) with shaking at 37° C. with rat liver microsomes (1 mg protein/mL, Sigma-Aldrich, St. Louis, Mo.) in potassium phosphate butler (100 mM) containing 1 mM NADPH. The mixture was then chilled on ice, and 0.5 mL of ice-cold ethyl acetate was added. Samples were centrifuged for 15 min at 3000 RPM. The supernatant was evaporated to dryness, and the residue was dissolved in 80 μL of mobile phase (acetonitrile:/water, 3:1, containing 0.1% formic acid) for LC/MS. Reverse-phase HPLC separation was carried out using a Waters C18 column (2.1 mm×100 mm, […]) equipped with a solvent delivery system (Waters model 2690, Milford, Mass.).
# SW-480 cells [4] = assay: SW-480 cell proliferation, AlamarBlue after 72 h; format: cell-based; details: for IC50: Homo sapiens, SW480, AlamarBlue after 72 h of drug treatment, read-out: IC50 inhibition of SW-480 cell proliferation
# Description: Compounds according to the present disclosure (structures shown in FIG. 5B) were tested for their inhibitory effect on proliferation of SW-480 cell line.
# SW-480 cells were cultured on plastic in Leibovitz L15 medium supplemented with 10% fetal bovine serum, 2 mM L-glutamine, 100 units/mL penicillin, and 100 μg/mL streptomycin. The cells were incubated at 37° C. without CO2.
# SW-480 cells were plated into black 96-well microplates (Corning-Costar Corp., New York, N.Y.) at 10% seeding. The cells were treated with test compounds dissolved in DMSO in serial dilution while maintaining the final concentration of DMSO at 0.5%. Plated cells were then incubated for 72 h at 37° C. Cell proliferation was quantified using the AlamarBlue assay (Invitrogen, Carlsbad, Calif.) as per the manufacturer's instructions. Data was normalized against untreated control cells that were lysed for 10 minutes using Triton-X100 (0.1% in PBS).
# SW-480 cells [5] = details: several tumor cell lines including SW480, reported; cited from earlier work
smiles,measurement,setting,value
"O=C(Nc1ccccc1OC(F)(F)F)c1c(NC(=O)C(F)(F)I)sc2c1CCC2 [Compound 6bw, 2-(2,2-Difluoro-2-iodo-acetylamino)-5,6-dihydro-4H-cyclopenta[b]thiophene-3-carboxylic add (2-trifluoromethoxy-phenyl)-amide]",IC50,TMEM16A [1],1.88 µM
"Cc1ccccc1NC(=O)c1c(NC(=O)C(F)(F)I)sc2c1CCCCC2 [Compound 6bn, 2-(2,2-Difluoro-2-iodo-acetylamino)-5,6,7,8-tetrahydro-4H-cyclohepta[b]thiophene-3-carboxylic acid o-tolylamide]",IC50,TMEM16A [1],0.6 µM
same,IC50,TMEM16A [2],0.73 µM
same,IC50,TMEM16B,1.4 µM
same,Cellular survival % at 5 μM,FRT null cells,96%
"O=C(Nc1ccccc1F)c1c(NC(=O)C(F)(F)F)sc2c1CCCCC2 [Compound 6aj, 2-(2,2,2-Trifluoro-acetylamino)-5,6,7,8-tetrahydro-4H-cyclohepta[b]thiophene-3-carboxylic acid (2-fluoro-phenyl)-amide]",IC50,TMEM16A [1],1.3 µM
"O=C(Nc1ccccc1)c1c(NC(=O)C(F)(F)Cl)sc2c1CCCCC2 [Compound 6bo, 2-(2-Chloro-2,2-difluoro-acetylamino)-5,6,7,8-tetrahydro-4H-cyclohepta[b]thiophene-3-carboxylic acid phenylamide]",IC50,TMEM16A [1],0.925 µM
"Cc1ccc(NC(=O)c2c(NC(=O)C(F)(F)F)sc3c2CCCC3)cc1 [Compound 6aw, 2-(2,2,2-Trifluoro-acetylamino)-4,5,6,7-tetrahydro-benzo[b]thiophene-3-carboxylic acid p-tolylamide]",IC50,TMEM16A [1],0.2 to 0.3 µM and 0.22 µM
"COc1ccccc1/C=N/NC(=O)COc1ccc(Cl)cc1C [Ani-9, reference compound]",Degradation (in words),[3],near complete degradation
"Cc1ccccc1NC(=O)c1c(NC(=O)C(F)(F)Cl)sc2c1CCCCC2 [Compound 6bk, 2-(2-Chloro-2,2-difluoro-acetylamino)-5,6,7,8-tetrahydro-4H-cyclohepta[b]thiophene-3-carboxylic acid o-tolylamide]",IC50,TMEM16A [1],0.08 to 0.18 µM and 0.18 µM
same,IC50,TMEM16A [2],0.23 µM
same,IC50,TMEM16B,0.4 µM
same,Cellular survival % at 5 μM,FRT null cells,98%
same,IC50,SW-480 cells [4],0.75 µM
"CC(C)(C)C1CCc2c(sc(NC(=O)c3ccco3)c2C(=O)O)C1 (stereo not drawn) [CaCCinh-A01, 6-t-butyl-2-(furan-2-carboxamido)-4,5,6,7-tetrahydrobenzo[b] thiophene-3-carboxylic acid]",Concentrations reported to inhibit proliferation of TMEM16A-expressing tumor cell lines,SW-480 cells [5],10 to 20 µM
"COc1ccc(Cl)cc1NC(=O)c1c(NC(=O)C(F)(F)F)sc2c1CCCCC2 [am1_47, N-(5-chloro-2-methoxyphenyl)-2-(2,2,2-trifluoroacetamido)-5,6,7,8-tetrahydro-4H-cyclohepta[b]thiophene-3-carboxamide]",IC50,SW-480 cells [4],0.47 µM
same,Potency in inhibiting proliferation of SW480 cells compared with CaCCinh-A01 (in words),SW-480 cells [4]; SW480 cells,considerably more potent than CaCCinh-A01
"CCC(=O)Nc1sc2c(c1C(=O)Nc1ccccc1)CCCCC2 [Compound 6ah, 2-Propionylamino-5,6,7,8-tetrahydro-4H-cyclohepta[b]thiophene-3-carboxylic acid phenylamide]",IC50,TMEM16A [1],1.2 µM
